In patent US20250082781A1, “METHODS OF LOWERING BLOOD GLUCOSE AND TREATING TYPE 2 DIABETES BY ACTIVATION OF PDE4D3” (Salk Institute for Biological Studies, priority 2021, published 2025):

How the values were obtained:
blood glucose levels [1] = assay: Blood glucose levels in ob/ob mice; type: in vivo, mouse; conditions: ad lib fed ob/ob mice, atglistatin 120 mg/kg p.o
Method: (§1) Mice were kept in 12 h light/dark cycle in a temperature-controlled environment. Mice had free access to food and water unless noted otherwise. C57/B6 mice background was used unless noted otherwise. C57BL/6J and ob/ob (000632-B6. Cg-Lepob/J) male mice were obtained from Jackson Laboratory. PDE4D knock-out mice (034588-UCD) were obtained from MMRRC. For diet-induced obesity (DIO) studies, mice were fed a high fat diet (HFD) (60% fat, F3282; Bio-Serv) for minimum of 12 weeks to induce insulin resistance when diet-induced obese model is used. Insulin levels and blood glucose levels were monitored to confirm insulin resistance. To generate adipose-specific FGFR1 deletion, adiponectin-cre mice (B6; FVB-Tg (Adipoq-cre)1Evdr/J; Stock: 010803) were crossed to Fgfr1 flox/flox (B6.129S4-Fgfr1tm5.1Sor/J; Stock: 00767) mice. For AAV mediated expression of target proteins in adipose tissue, 5×10E+11 genomic copies of AAV were injected via tail vein or retro-orbital route.
(§2) Recombinant FGF1 (rFGF1) was dissolved in phosphate-buffered saline (PBS) at a concentration of 0.2 mg/ml and was injected subcutaneously at a 0.5 mg kg^−1 dose. Blood glucose was monitored at indicated time points after injection. For initial measurements (2-4 h) food was removed after injection to exclude any indirect effects stemming from anorexigenic effects of FGF1. PDE4 inhibitor roflumilast stock in DMSO was diluted at 1 mg/ml in 30% captisol, pH 10 and delivered to mice thorough oral gavage at 5 mg kg^−1 dose. PDE3 inhibitor cilostamide stock in DMSO was diluted at 2 mg/ml in 30% captisol and delivered through intraperitoneal injection at 10 mg kg^−1 dose.

blood glucose levels [2] = assay: Blood glucose levels in DIO mice; type: in vivo, mouse; conditions: roflumilast 5 mg/kg p.o.
Method: as §1, §2

serum FFA levels = assay: Serum FFA levels in DIO mice; type: in vivo, mouse; conditions: ad lib fed DIO mice, roflumilast 5 mg/kg p.o., 1 h
Method: as §1, §2

[3] = test system: HSL phosphorylation at S660; assay: Western blot of pHSL-S660 in 3T3-L1 adipocytes; type: cell-based; conditions: basal and ISO-stimulated cells, roflumilast 2 μM
Method: Tissues were lysed in cold lysis buffer (50 mM Tris, pH 7.5, 150 mM NaCl, 1% NP40, 0.5% NaDoc, 0.1% SDS, 5% glycerol, 1 mM EDTA, protease and phosphatase inhibitors (complete and PhosSTOP (Roche)) by homogenization by bead-beater for 30 s. Samples were cleared for 10 min at 18,000 g at 4° C. and the middle clear phase was transferred to new tubes. A second 30 min centrifugation was performed and the middle clear phase was transferred to new tubes. Five ul protein extract was used for BCA assay to determine protein concentration. Samples were boiled in Laemmli buffer. SDS-PAGE and blotting were performed using gradient gels and Trans-Blot Turbo Transfer System (Bio-Rad). Antibodies used were PDE4D (12918-1-AP, Proteintech), pHSL-660 (4126S, Cell signaling), HSL (4107S, Cell Signaling), tubulin (CP06, Millipore Sigma), and GFP (A01388, GenScript). PDE4D3-pS44 phospho-specific antibody was generated using PDE4D3-S44 FRRHpSWISFDVDNGTSAGR peptide (SEQ ID NO: 20) (Mackenzie et al., 2002) by Pocono Rabbit Farm, using 70-day rabbit antibody production protocol and purified via affinity purification. Primary antibodies were incubated for 2 h at room temperature (RT) or overnight (ON) at 4° C. Blots were developed using SuperSignal West Pico PLUS Chemiluminescent Substrate (ThermoFisher Scientific) and imaged with BioRad GelDoc system.

[4] = Serum insulin levels in DIO mice; type: in vivo, mouse; conditions: ad lib fed DIO mice, roflumilast 5 mg/kg p.o., 1 h
Method: as §1
Recombinant FGF1 (rFGF1) was dissolved in phosphate-buffered saline (PBS) at a concentration of 0.2 mg/ml and was injected subcutaneously at a 0.5 mg kg^−1 dose. Blood glucose was monitored at indicated time points after injection. For initial measurements (2-4 h) food was removed after injection to exclude any indirect effects stemming from anorexigenic effects of FGF1. […]

[5] = target: FGFR1 on mouse adipocytes (mouse) (UniProt P16092); assay: cell-based or functional assay
UniProt P16092, sequence (P16092 22-822): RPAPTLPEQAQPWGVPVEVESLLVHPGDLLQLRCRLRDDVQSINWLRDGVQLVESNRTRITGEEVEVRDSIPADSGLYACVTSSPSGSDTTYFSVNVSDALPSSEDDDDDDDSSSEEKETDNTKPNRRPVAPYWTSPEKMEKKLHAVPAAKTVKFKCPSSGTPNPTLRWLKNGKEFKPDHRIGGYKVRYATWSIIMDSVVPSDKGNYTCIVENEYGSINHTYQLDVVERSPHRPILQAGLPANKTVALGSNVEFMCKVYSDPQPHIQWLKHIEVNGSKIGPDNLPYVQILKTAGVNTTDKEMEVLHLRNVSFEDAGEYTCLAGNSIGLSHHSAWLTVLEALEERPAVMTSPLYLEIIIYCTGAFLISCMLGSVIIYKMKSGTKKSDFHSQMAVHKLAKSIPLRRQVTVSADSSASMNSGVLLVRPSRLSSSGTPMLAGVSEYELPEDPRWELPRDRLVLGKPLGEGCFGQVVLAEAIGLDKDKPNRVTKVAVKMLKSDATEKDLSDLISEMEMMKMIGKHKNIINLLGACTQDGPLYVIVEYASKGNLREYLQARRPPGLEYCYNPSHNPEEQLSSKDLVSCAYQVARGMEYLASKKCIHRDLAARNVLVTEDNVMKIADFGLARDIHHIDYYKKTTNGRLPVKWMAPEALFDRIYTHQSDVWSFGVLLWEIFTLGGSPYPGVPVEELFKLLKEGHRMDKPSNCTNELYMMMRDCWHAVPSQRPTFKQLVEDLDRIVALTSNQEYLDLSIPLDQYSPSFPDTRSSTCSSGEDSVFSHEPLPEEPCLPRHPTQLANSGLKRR

[6] = target: T1, GFP-tagged perilipin (perilipin-GFP), Q8CGN5
T1 chain: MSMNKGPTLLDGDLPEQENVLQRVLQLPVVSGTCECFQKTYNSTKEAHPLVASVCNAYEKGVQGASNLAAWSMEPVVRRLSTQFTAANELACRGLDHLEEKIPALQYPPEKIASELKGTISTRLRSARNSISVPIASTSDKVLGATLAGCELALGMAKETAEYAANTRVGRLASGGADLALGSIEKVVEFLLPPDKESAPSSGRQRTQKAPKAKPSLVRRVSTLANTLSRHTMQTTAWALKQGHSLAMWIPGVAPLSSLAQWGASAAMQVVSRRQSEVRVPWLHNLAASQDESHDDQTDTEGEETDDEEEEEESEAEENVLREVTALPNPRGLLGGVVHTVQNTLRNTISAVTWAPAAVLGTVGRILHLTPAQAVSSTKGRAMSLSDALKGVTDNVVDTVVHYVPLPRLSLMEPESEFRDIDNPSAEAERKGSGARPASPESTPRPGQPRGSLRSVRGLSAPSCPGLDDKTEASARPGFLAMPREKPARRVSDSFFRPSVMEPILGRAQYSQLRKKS

CN(C)C(=O)Nc1cccc(-c2ccc(N(C)C)cc2)c1 [Atglistatin, reference compound]
blood glucose levels (blood glucose levels [1]): rapidly lowered blood glucose levels

O=C(Nc1c(Cl)cncc1Cl)c1ccc(OC(F)F)c(OCC2CC2)c1 [roflumilast, reference compound]
blood glucose (blood glucose levels [2]; ad lib fed DIO mice): transiently increased
blood glucose levels (blood glucose levels [2]; fasted DIO mice): more sustained increase in blood glucose levels
serum FFA (serum FFA levels): transiently increased
ability of FGF1 to suppress HSL phosphorylation in presence of roflumilast [3]: lost
insulin levels [4]: transiently increased

Recombinant FGF1 (rFGF1) (ligand)
serum FFA levels in DIO adR1WT and adR1KO mice [5]: 30%

B1: mCherry-tagged HSL (HSL-mCherry) (protein)
chain: MDLRTMTQSLVTLAEDNMAFFSSQGPGETARRLSNVFAGVREQALGLEPTLGQLLGVAHHFDLDTETPANGYRSLVHTARCCLAHLLHKSRYVASNRKSIFFRASHNLAELEAYLAALTQLRAMAYYAQRLLTINRPGVLFFEGDEGLTADFLQEYVTLHKGCFYGRCLGFQFTPAIRPFLQTLSIGLVSFGEHYKRNETGLSVTASSLFTGGRFAIDPELRGAEFERIIQNLDVHFWKAFWNITEIEVLSSLANMASTTVRVSRLLSLPPEAFEMPLTSDPRLTVTISPPLAHTGPAPVLARLISYDLREGQDSKVLNSLAKSEGPRLELRPRPHQAPRSRALVVHIHGGGFVAQTSKSHEPYLKNWAQELGVPIFSIDYSLAPEAPFPRALEECFFAYCWAVKHCDLLGSTGERICLAGDSAGGNLCITVSLRAAAYGVRVPDGIMAAYPVTTLQSSASPSRLLSLMDPLLPLSVLSKCVSAYSGTEAEDHFDSDQKALGVMGLVQRDTSLFLRDLRLGASSWLNSFLELSGRKPQKTTSPTAESVRPTESMRRSVSEAALAQPEGLLGTDTLKKLTIKDLSNSEPSDSPEMSQSMETLGPSTPSDVNFFLRPGNSQEEAEAKDEVRPMDGVPRVRAAFPEGFHPRRSSQGVLHMPLYTSPIVKNPFMSPLLAPDSMLKTLPPVHLVACALDPMLDDSVMFARRLRDLGQPVTLKVVEDLPHGFLSLAALCRETRQATEFCVQRIRLILTPPAAPLN
co-localization of perilipin-GFP and HSL-mCherry in live 3T3-L1 adipocytes (fluorescence overlap, confocal microscopy) [6]: FGF1 reduced the isoproterenol-induced co-localization of perilipin-GFP and HSL-mCherry
